Results as given in ChEMBL document CHEMBL1143163, “Structures of the ligand-binding core of iGluR2 in complex with the agonists (R)- and (S)-2-amino-3-(4-hydroxy-1,2,5-thiadiazol-3-yl)propionic acid explain their unusual equipotency” (J Med Chem, 2008).

What was measured:
Glutamate receptor 1 = Glutamate receptor 1 (Homo sapiens, UniProt P42261); assay: Binding affinity at iGluR1o receptor expressed in sf9 cells by radioligand binding assay
Glutamate receptor 3 = Glutamate receptor 3 (Homo sapiens, UniProt P42263); assay: Binding affinity at iGluR3o receptor expressed in sf9 cells by radioligand binding assay
Glutamate receptor 2 [1] = target: T1, Glutamate receptor 2 (Homo sapiens, UniProt P42262); assay: Binding affinity at iGluR2o(R) receptor expressed in sf9 cells by radioligand binding assay
[2] = target: Glutamate receptor ionotropic, kainate 2 (Homo sapiens, UniProt Q13002); assay: Binding affinity at iGluR6(V,C,R) receptor expressed in sf9 cells by radioligand binding assay
Glutamate receptor 2 [3] = target: T1, Glutamate receptor 2; assay: Binding affinity at iGluR2 receptor S1S2J domain expressed in sf9 cells by radioligand binding assay
Glutamate receptor 4 = Glutamate receptor 4 (Homo sapiens, UniProt P48058); assay: Binding affinity at iGluR4o receptor expressed in sf9 cells by radioligand binding assay
Glutamate receptor 4, sequence (P48058 whole entry): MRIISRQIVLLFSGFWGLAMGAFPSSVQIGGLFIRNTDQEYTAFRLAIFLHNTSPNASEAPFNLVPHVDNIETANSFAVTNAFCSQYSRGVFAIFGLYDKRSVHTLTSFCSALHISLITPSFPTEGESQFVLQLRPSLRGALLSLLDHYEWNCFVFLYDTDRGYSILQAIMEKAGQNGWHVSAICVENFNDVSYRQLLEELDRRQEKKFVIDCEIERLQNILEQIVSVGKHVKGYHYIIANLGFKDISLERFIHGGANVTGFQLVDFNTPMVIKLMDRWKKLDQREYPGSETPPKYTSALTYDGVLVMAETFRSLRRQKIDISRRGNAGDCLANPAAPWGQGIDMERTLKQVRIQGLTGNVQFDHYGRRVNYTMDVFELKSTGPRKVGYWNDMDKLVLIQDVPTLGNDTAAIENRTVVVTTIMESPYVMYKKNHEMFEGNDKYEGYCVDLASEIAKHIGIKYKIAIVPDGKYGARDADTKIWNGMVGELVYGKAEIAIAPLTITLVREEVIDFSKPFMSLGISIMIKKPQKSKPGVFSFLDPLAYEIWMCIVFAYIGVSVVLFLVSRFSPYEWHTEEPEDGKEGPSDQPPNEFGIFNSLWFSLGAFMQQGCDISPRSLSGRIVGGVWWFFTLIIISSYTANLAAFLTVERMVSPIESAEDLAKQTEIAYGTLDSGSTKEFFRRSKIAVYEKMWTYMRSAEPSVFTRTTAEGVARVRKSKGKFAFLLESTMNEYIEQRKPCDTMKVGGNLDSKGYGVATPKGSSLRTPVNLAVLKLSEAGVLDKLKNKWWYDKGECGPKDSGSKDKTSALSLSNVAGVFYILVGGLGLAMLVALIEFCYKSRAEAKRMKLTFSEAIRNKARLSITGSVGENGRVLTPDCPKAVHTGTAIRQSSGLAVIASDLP

T1 sequence (P42262 whole entry): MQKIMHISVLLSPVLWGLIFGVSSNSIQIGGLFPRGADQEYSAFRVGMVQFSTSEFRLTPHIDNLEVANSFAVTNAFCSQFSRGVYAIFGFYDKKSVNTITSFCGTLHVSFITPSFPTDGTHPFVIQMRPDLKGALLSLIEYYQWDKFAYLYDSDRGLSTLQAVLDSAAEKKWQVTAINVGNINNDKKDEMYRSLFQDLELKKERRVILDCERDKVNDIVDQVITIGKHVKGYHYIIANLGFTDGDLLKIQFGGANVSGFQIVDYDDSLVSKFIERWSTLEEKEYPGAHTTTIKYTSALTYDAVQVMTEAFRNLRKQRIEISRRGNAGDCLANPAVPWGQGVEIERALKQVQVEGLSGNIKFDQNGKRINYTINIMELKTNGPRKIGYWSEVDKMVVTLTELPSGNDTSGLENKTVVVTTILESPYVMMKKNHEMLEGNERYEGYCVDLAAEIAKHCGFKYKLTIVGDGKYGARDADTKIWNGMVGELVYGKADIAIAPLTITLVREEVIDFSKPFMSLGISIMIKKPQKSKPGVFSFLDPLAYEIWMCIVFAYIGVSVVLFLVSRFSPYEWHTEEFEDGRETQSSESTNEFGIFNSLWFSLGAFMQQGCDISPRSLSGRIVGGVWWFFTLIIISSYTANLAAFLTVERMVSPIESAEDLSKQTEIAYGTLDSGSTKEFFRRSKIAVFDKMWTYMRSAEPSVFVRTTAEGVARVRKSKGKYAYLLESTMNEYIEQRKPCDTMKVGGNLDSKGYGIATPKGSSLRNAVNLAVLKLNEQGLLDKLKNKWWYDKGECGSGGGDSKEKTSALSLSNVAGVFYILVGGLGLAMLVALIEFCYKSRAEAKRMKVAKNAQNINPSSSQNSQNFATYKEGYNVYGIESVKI
Glutamate receptor 3, sequence (P42263 whole entry): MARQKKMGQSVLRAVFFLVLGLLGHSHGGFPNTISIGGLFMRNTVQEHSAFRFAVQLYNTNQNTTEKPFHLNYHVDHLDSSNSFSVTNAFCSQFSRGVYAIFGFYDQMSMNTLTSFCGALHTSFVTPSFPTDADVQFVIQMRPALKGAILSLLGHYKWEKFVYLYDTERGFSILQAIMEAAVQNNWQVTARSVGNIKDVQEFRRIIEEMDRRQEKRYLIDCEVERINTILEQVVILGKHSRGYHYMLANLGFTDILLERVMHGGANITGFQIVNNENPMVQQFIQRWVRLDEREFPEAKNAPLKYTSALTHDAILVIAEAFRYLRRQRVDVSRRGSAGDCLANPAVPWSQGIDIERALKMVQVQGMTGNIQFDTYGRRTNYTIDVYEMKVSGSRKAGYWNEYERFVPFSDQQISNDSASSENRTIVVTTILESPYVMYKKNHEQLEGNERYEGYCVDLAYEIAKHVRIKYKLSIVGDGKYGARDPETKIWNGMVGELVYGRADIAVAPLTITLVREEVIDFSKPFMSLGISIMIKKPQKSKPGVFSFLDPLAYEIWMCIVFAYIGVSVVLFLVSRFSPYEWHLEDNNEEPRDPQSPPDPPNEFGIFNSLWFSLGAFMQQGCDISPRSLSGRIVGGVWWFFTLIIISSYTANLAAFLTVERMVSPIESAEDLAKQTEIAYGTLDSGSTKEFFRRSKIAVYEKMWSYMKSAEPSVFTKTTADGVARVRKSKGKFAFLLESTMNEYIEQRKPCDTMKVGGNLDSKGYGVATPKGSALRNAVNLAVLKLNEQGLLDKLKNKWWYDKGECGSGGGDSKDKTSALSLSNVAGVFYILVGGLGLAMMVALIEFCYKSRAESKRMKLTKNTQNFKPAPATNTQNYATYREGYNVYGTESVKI
Glutamate receptor 1, sequence (P42261 whole entry): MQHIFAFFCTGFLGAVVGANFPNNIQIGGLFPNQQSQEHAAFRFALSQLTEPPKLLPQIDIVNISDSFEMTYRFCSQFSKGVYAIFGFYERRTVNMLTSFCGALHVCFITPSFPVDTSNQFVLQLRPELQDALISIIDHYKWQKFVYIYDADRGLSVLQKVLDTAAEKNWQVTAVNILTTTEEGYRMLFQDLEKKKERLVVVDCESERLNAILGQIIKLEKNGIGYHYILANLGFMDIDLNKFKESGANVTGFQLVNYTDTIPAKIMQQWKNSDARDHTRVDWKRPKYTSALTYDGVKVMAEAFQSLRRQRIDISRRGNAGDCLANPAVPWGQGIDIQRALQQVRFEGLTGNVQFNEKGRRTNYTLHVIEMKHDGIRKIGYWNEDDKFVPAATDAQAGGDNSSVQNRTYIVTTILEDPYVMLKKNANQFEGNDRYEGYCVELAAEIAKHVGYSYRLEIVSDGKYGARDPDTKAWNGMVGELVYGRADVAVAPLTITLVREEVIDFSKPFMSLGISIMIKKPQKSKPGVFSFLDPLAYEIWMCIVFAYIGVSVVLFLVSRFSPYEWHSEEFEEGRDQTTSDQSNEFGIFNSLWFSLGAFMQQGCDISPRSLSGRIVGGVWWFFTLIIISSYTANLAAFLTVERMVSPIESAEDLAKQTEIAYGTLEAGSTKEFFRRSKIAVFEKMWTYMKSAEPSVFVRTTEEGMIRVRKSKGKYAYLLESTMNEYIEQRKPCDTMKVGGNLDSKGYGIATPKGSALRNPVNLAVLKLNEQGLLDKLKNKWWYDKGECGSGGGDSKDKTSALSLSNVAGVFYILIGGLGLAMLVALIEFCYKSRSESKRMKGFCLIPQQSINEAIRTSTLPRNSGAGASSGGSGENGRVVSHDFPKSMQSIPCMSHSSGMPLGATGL
Glutamate receptor ionotropic, kainate 2, sequence (Q13002 whole entry, the tested form may be a part): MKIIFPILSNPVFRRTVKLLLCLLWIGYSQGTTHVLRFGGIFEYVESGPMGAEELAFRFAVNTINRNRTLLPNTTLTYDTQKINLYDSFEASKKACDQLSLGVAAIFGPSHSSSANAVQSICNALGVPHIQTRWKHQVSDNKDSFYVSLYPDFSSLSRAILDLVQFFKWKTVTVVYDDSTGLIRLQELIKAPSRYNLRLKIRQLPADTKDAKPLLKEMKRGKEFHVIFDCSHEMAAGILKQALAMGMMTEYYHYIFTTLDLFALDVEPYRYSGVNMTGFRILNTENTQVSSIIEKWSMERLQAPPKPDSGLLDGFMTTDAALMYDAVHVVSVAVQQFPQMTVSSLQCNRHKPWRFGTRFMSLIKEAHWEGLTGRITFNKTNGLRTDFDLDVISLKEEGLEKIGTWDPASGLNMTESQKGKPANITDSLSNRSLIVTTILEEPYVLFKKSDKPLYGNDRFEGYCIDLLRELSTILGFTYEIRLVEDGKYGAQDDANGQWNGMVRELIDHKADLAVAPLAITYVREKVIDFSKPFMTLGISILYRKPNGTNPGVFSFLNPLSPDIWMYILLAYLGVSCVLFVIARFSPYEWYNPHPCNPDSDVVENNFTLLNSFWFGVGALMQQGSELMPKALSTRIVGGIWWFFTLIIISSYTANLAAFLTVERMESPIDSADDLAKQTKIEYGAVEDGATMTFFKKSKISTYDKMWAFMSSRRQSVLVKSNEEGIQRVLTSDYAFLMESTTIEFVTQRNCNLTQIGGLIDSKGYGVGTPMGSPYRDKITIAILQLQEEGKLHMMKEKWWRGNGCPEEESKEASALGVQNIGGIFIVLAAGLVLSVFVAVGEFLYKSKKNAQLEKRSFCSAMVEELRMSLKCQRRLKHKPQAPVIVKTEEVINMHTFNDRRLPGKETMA

N[C@@H](Cc1nsnc1O)C(=O)O
Ki (Glutamate receptor 1): 0.185 µM
Ki (Glutamate receptor 3): 0.16 µM
Ki (Glutamate receptor 2 [1]): 0.273 µM
Ki [2]: > 100 µM
Ki (Glutamate receptor 2 [3]): 0.323 µM
Ki (Glutamate receptor 4): 0.182 µM

N[C@H](Cc1ns[nH]c1=O)C(=O)O
Ki (Glutamate receptor 1): 0.15 µM
Ki (Glutamate receptor 3): 1.07 µM
Ki (Glutamate receptor 2 [1]): 0.234 µM
Ki [2]: > 1000 µM
Ki (Glutamate receptor 2 [3]): 0.531 µM
Ki (Glutamate receptor 4): 1.05 µM
